In patent US11806351B2, “Use of coenzyme factor for activation of ATP production in cell” (TERA STONE Co., Ltd, priority 2018, dated 2023):
Read-outs that look alike come from different tables or passages of the source.

Key:
[1] = lipophilicity, hydrophobicity and stability; type: physicochemical
[2] = system: human glioma U251 cells (Sig1-R transfected cells); experiment: intracellular ATP concentration in human glioma U251 cells; type: cell-based
Experimental: To cultured human glioma US251 cells (Sig1-R transfected cells) were added Specimens 1 and 2, respectively and intercomparison was performed between intracellular ATP concentration after addition and that without addition (Cont.). […] It is to be noted that fluorescence measurement was performed 6 hours after the administration of the specimens.

[3] = system: mitochondrial Ca^2+ concentration in cerebral cortex and hippocampal neurons; experiment: K+ depolarization-induced mitochondrial Ca2+ increase in brain slices after intraperitoneal administration; type: in vivo, C57BL/6N mice
Experimental: One of adult C57BL/6N mice (from 10 to 17 weeks old, weight: from 28 to 31 g) was intraperitoneally administered with physiological saline (Control) and the other one with Specimen 3 (10 μg/kg). After 22 hours, a thin brain slice preparation of each mouse including the cortex and the hippocampus was made. Depolarization of a cellular membrane was caused by the addition of 80 mM KCl (80K) to an extracellular fluid and an increase in mitochondrial Ca^2+ concentration resulting therefrom was measured by a fluorescent method with Rhod-2 (Note 1). Positive participation of Specimen 3 to the ATP activity in mitochondria was indirectly verified (Note 3) by using, as an index, how the Ca^2+ concentration to be increased by 80K (Note 2) is suppressed by Specimen 3 in the brain slice.
(Note 1) Rhod-2: Ca^2+ fluorescent dye selectively incorporated in mitochondria
(Note 2) The depolarization of the neuronal membrane by 80K occurs due to both the flow of Ca^2+ from the outside to the inside of the cell and the release of Ca^2+ from an intracellular Ca store. The free Ca^2+ which has increased in the cell easily enters the mitochondria, an intracellular independent organ.
(Note 3) The free Ca^2+ which has increased in the neuronal cytoplasm due to 80K stimulation-induced depolarization speedily and immediately transmits into the mitochondria from the cytoplasm. A decrease in the mitochondrial free Ca^2+ concentration caused by the specimen occurs because the free Ca^2+ is scooped out of the cell by an outward Ca pump present in the neuron cytoplasm membrane or adsorption and fixing to a portion inside the mitochondria. Energy for it is supplied from ATP produced in the mitochondria. Based on the results thus obtained, intraperitoneally injected Specimen 3 passes from the blood to glia (astrocyte) cells and is then, incorporated in the mitochondria in the cerebral cortex or hippocampal neuron, by which ATP production in the mitochondria is activated and neurons are activated. […]
Fluorescence measurement results of a mitochondrial Ca^2+ increase are plotted along the ordinate.

hippocampal neurons = experiment: number of branches of hippocampal neuron dendrite, Specimens 5 to 11; type: cell-based, ICR mouse; conditions: 0.3 μM added once on culture day 1; MAP2 antibody culture day 4
Experimental: Hippocampal neurons were collected from the juvenile (Day 0 after birth) ICR mouse brain and cultured on a culture dish.
Each specimen was added once to the cells in the initial growth stage (on culture day 1); the resulting cells were immunostained with a MAP2 antibody three days later (on culture day 4), and the number of branches of the dendrite was quantified.
The measurement was performed by drawing 20 μm to 100 μm concentric circles (not shown) at an interval of 10 μm with a soma as a center and counting the number of dendrites crossing the circles.
A line graph of the number of dendrite crossings counted for each distance from the soma was drawn and a Student's t-test, paired (t-test, two tailed distribution) was carried out using an area under the line graph (Area under the Curve: AUC).
When the number of cases of a specimen was sufficient, the test was performed while eliminating the maximum and minimum values. The concentrations of the specimens to be added were each 0.3 μM.

[4] = cited from earlier work
[5] = system: cytoplasmic calcium concentration; experiment: cytoplasmic calcium concentration in brain slice preparations exposed to 80K ACSF, 24 h after subcutaneous administration; type: in vivo, mouse (C57B/6NL)
Experimental: (§1) Formation of brain slice preparation and measurement of calcium concentration: Used was a whole brain half-cut preparation obtained by cutting a whole brain slice (300 μm) of a mouse (C57B/6NL), pretreated with Specimen 1 for 24 hours by subcutaneous administration, at a median line. […] The resulting preparation was placed in a chamber provided on a stage of an inverted fluorescence microscope (Olympus IX71), covered with a piece of black cotton, fixed with a platinum ring, and refluxed (70 ml/hr) in ACSF aerated with 95% O2 and 5% CO2. A fluorescent image of the preparation was acquired using a 4× objective lens and respective images of the hippocampal ventral part and cerebral cortex temporal region were obtained in one screen. For the measurement of a mitochondrial calcium concentration, a change in intensity of red fluorescence (>600 nm) caused by excitation light at 580 nm was determined and for the measurement of a cytoplasmic calcium concentration, a ratio of fluorescence (>500 nm) between excitation at 360 nm and that at 380 nm was determined. A hippocampal CA1 site and a cerebral cortex were used as two regions of interest (ROI).
(§2) In water was dissolved β-NMN to give a 10 mg/kg, 30 mg/kg, or 100 mg/kg solution; Specimen 1 was dissolved in an alcohol to give a solution of 1 mg/ml and then the resulting solution was diluted with water to give a 0.01 mg/kg, 0.1 mg/kg or 1.0 mg/kg solution; and they were subcutaneously administered to mice 24 hours before the formation of the preparation (0.1 ml/10 g).
(§3) In the present test, an operation of exposing the brain preparations formed from mice administered with two drugs having respective concentrations to isotonic 80 mM KCl-ACSF (artificial cerebrospinal fluid) for 5 minutes and then returning them in normal ACSF for 5 minutes was performed three successive times to give a severe calcium load to the preparations. Variations in cytoplasmic and mitochondrial calcium concentrations at that time were measured.

[6] = system: mitochondrial calcium concentration; experiment: mitochondrial calcium concentration in brain slice preparations exposed to 80K ACSF, 24 h after subcutaneous administration; type: in vivo, mouse (C57B/6NL)
Experimental: as §1, §2, §3
FIG. 31A to FIG. 32C show the quantification results of the effects of β-NMN and Specimen 1 (TND1128) at each concentration. In FIG. 31A to FIG. 32C, FIG. 31A and FIG. 32A show the results of calculating a mitochondrial calcium concentration, as AUC (Area under the curve), for 35 minutes from 5 minutes after starting of the experiment by administration to three times exposure to 80K-ACSF and 5-minute washing (refer to FIG. 37). FIG. 31B. FIG. 31C, FIG. 32B and FIG. 32C show the drug effects on 5-minute 80K administration and 5-minute subsequent washing (1st: from 5 minutes to 15 minutes, 2nd: from 15 minutes to 25 minutes, and 3rd: from 25 minutes to 35 minutes) in the cerebral cortex (CTX) and the hippocampus (CA1), respectively (refer to FIG. 37). A significant difference test was performed using Tukey's method.

[7] = as printed in the method, b201, read-out: Kd

In the case of `CCCCn1c2nc(=O)n(-c3ccccc3)c(=O)c-2cc2c1C=C1CC[C@H]3[C@@H]4CC[C@H](O)[C@@]4(C)CC[C@@H]3[C@@]1(C)C2`, the melting point is reported as 200 °C.
`C[C@]12CC[C@H]3[C@@H](CCC4=Cc5c(cc6c(=O)n(-c7ccccc7)c(=O)nc-6n5Cc5ccccc5)C[C@@]43C)[C@@H]1CC[C@@H]2O` showed a melting point of 224 °C.
Compound `C[C@]12CC[C@H]3[C@@H](CCC4=Cc5c(cc6c(=O)n(-c7ccccc7)c(=O)nc-6n5-c5ccccc5)C[C@@]43C)[C@@H]1CC[C@@H]2O` has a melting point of 257 °C.
With `CCn1c2nc(=O)n(C)c(=O)c-2cc2c1C=C1CC[C@H]3[C@@H]4CC[C@H](O)[C@@]4(C)CC[C@@H]3[C@@]1(C)C2` the melting point was 260 °C (dec.).
Work on `Cn1c(=O)nc2n(Cc3ccccc3)c3c(cc-2c1=O)C[C@@]1(C)C(=C3)CC[C@H]2[C@@H]3CC[C@H](O)[C@@]3(C)CC[C@@H]21` yielded a melting point of 215 °C.
For `Cn1c(=O)nc2n(-c3ccccc3)c3c(cc-2c1=O)C[C@@]1(C)C(=C3)CC[C@H]2[C@@H]3CC[C@H](O)[C@@]3(C)CC[C@@H]21`, the melting point was 215 °C (dec.).
With `CCCCn1c2nc(=O)n(C)c(=O)c-2cc2ccccc21` [Specimen 2] the “lipophilicity compared with Specimen 1” value [1] was “higher lipophilicity”, the “effectiveness on ATP production compared between specimens” value ([2]; 6 hours after administration) was “more effective than Specimen 1” and the “ATP production amount (intracellular ATP concentration vs without addition)” value ([2]; fluorescence measurement 6 hours after administration) was “significantly increased the ATP production amount”.
In the case of `CCCCn1c2nc(=O)n(C)c(=O)c-2cc2c1C=C1CCC3C(CCC4(C)C(O)CCC34)C1(C)C2` (stereo not drawn) [Specimen 3, 8′-n-Butyl-5′-deaza-17β-hydroxy-3′-methylandrost-2,4-dieno[2,3-g]pteridine-2′,4′(3′H,8′H)-dione], the “decrease of 80K depolarization-induced increase in mitochondrial Ca2+ concentration, cortex and hippocampal neurons” value ([3]; 10 μg/kg i.p. pretreatment in vivo) is reported as “markedly and at the maximum”, the “variations of mitochondrial Ca2+ concentration on 80K extracellular fluid, cerebral cortex neurons” value ([3]; 10 μg/kg i.p., slice made 22 hours after injection) is reported as “suppression of the Ca^2+ concentration increase and a faster recovery from the Ca^2+ concentration increased by 80K depolarization can be observed” and the “dose at which the maximum inhibitory effect on mitochondrial Ca2+ concentration increase is attained, hippocampal neurons” value ([3]; i.p., 10 μg/kg and 10 mg/kg compared, n=3 slices) is reported as 0.01 mg/kg.
In the case of `CCn1c2nc(=O)n(C)c(=O)c-2cc2c(=O)n(C)c(=O)[nH]c21` [Specimen 5], the “number of branches of hippocampal neuron dendrite (AUC of dendrite crossings, t-test vs control)” value (hippocampal neurons) is reported as “an effect on dendrite elongation is recognized”.
With `O=c1nc2n(-c3ccc(Cl)cc3)c3[nH]c(=O)n(-c4ccccc4)c(=O)c3cc-2c(=O)n1-c1ccccc1` [Specimen 6] the “number of branches of hippocampal neuron dendrite (AUC of dendrite crossings, t-test vs control)” value (hippocampal neurons) was “an effect on dendrite elongation is recognized”.
In the case of `Cn1c2nc(=O)n(C)c(=O)c-2cc2c1C=C1CCC3C(CCC4(C)C(O)CCC34)C1(C)C2` (centres unmarked) [Specimen 7], the “number of branches of hippocampal neuron dendrite (AUC of dendrite crossings, t-test vs control)” value (hippocampal neurons) is reported as “a statistically significant difference is recognized (p<0.05)”.
For `CCn1c2nc(=O)n(-c3ccccc3)c(=O)c-2cc2c1C=C1CCC3C(CCC4(C)C(O)CCC34)C1(C)C2` (stereo not drawn) [Specimen 8, 5′-Deaza-8′-ethyl-17β-hydroxy-3′-phenylandrost-2,4-dieno[2,3-g]pteridine-2′,4′(3′H, 8′H)-dione], the “number of branches of hippocampal neuron dendrite (AUC of dendrite crossings, t-test vs control)” value (hippocampal neurons) was “an effect on dendrite elongation is recognized”.
For `CC(C)CCCC(C)C1CCC2C3CCC4=Cc5c(cc6c(=O)n(C)c(=O)nc-6n5C)CC4(C)C3CCC12C` (centres unmarked) [Specimen 9], the “number of branches of hippocampal neuron dendrite (AUC of dendrite crossings, t-test vs control)” value (hippocampal neurons) was “an effect on dendrite elongation is recognized”.
For `Cc1ccc(-n2c3nc(=O)n(C)c(=O)c-3cc3c2C=C2CCC4C(CCC5(C)C(C(C)CCCC(C)C)CCC45)C2(C)C3)cc1C` (centres unmarked) [Specimen 10], the “number of branches of hippocampal neuron dendrite (AUC of dendrite crossings, t-test vs control)” value (hippocampal neurons) was “an effect on dendrite elongation is recognized”.
With `Cc1ccc(-n2c3nc(=O)n(-c4ccccc4)c(=O)c-3cc3c2C=C2CCC4C(CCC5(C)C(C(C)CCCC(C)C)CCC45)C2(C)C3)cc1C` (centres unmarked) [Specimen 11] the “number of branches of hippocampal neuron dendrite (AUC of dendrite crossings, t-test vs control)” value (hippocampal neurons) was “a statistically significant difference is recognized (p<0.05)”.
For `CC(=O)OCOC(=O)CN(CC(=O)OCOC(C)=O)c1ccc(C)cc1OCCOc1cc(C2=c3cc4c5c(c3Oc3c2cc2c6c3CCCN6CCC2)CCC[N+]=5CCC4)ccc1N(CC(=O)OCOC(C)=O)CC(=O)OCOC(C)=O` [Xrhod-1/AM], the Kd [4, 7] is listed as 700 µM.
In the case of `CC(=O)OCOC(=O)CN(CC(=O)OCOC(C)=O)c1cc(F)ccc1OCCOc1cc2cc(-c3ncc(C(=O)OCOC(C)=O)o3)oc2cc1N(CC(=O)OCOC(C)=O)CC(=O)OCOC(C)=O` [fura-4F/AM], the Kd [4, 7] is given as 770 µM and the Kd ([4]; read-out: Ca2+ chelating ability (Kd)) is given as 0.77 µM.
For `NC(=O)c1ccc[n+]([C@@H]2O[C@H](COP(=O)([O-])O)[C@@H](O)[C@H]2O)c1` [β-NMN, Nicotinamide mononucleotide, reference compound], the “effect on drastic increase in cytoplasmic Ca2+ concentration caused by 80K-ACSF” value ([5]; s.c. 24 h pretreatment) was “no significant effect”, the “quantified cytoplasmic Ca2+ (AUC), significant difference” value ([5]; s.c. 24 h pretreatment, all doses) was “a significant difference was not observed at concentrations other than that of the group administered with 10 mg/kg of β-NMN” and the “recovery of cytoplasmic calcium concentration variations at each 80K-ACSF administration” value ([5]; β-NMN 30 or 100 mg/kg, Specimen 1 0.01 to 1.0 mg/kg, s.c. 24 h) was “show similar recovery”. For the same compound, the “physiological response of the preparations under 80K-ACSF stimulation (mitochondrial and cytoplasmic Ca2+ variations)” value ([6]; 100 mg/kg β-NMN, 1 mg/kg Specimen 1) was “the preparations can maintain a markedly stable physiological response”, the “mitochondrial protective function / function stabilizing effect” value ([6]; 24 hours after administration) was “induces significant mitochondrial protective function” and the “mitochondrial calcium concentration as AUC, cerebral cortex (CTX) and hippocampus (CA1)” value ([6]; s.c. 24 h pretreatment, within the dose range studied, Tukey's method) was “a dose response relationship”. The “mitochondrial Ca2+ increase on three times 80K ACSF exposure (time course)” value ([6]; s.c. 24 h pretreatment, β-NMN 10, 30, 100 mg/kg, Specimen 1 0.01, 0.1, 1.0 mg/kg) was “dose-dependently suppress a mitochondrial Ca^2+ increase”.
